# Experimental data from US12569473B2, “Methods to treat respiratory infection utilizing castanospermine analogs” (60 Degrees Pharmaceuticals, Inc., priority 2022, dated 2026).
# Where a name gives a salt, the structure may show the parent alone. Read-outs that look alike come from different tables or passages of the source.
# Columns and labels:
# human rhinovirus-14 [1] = assay: CPE inhibition assay, visual examination, human rhinovirus-14; type: cell-based; settings: for efficacy against human rhinovirus-14: at the concentrations tested (0.3-300 microM); for EC50: visual examination, HeLa Ohio cells, unit inferred
# Method: (§1) The efficacy of celgosivir and castanospermine against RSV and human rhinovirus-14 was assessed in vitro. For RSV studies, embryonic African green monkey kidney cells (MA-104) were grown in minimal essential medium (MEM) supplemented with 0.1% NaHCO3 and 10% fetal bovine serum. When performing antiviral assays, serum was reduced to 2% and […] gentamicin was added to the medium. RSV strain A2 was used for the studies. For rhinovirus studies, the HeLa Ohio cell line was used in place of MA-104 cells.
# (§2) CPE inhibition assays with visual quantification of antiviral activity and cytotoxicity were performed as described by Sidwell and Huffman (1971) with slight modifications. Sidwell, R. W. and Huffman, J. H. (1971) Use of disposable micro-tissue culture plates for antiviral and interferon induction studies. Appl. Microbiol. 22, […]. […] All compounds were assayed for virus inhibition in quadruplicate and for cytotoxicity in duplicate. For rhinovirus studies, Pirodavir was applied at a concentration of 0.001-1 μg/ml as the positive control compound. For RSV studies, the positive control compound was Ribavirin applied at a concentration of 0.5-500 μg/ml. For each compound, two wells were set aside as uninfected, untreated cell controls per test and four wells per test received virus only and represented controls for virus replication. […] For all CPE-based assays, the 50% effective concentration (EC50) was calculated by regression analysis using the means of the CPE ratings at each concentration of compound. Morphological changes due to compound cytotoxicity were graded on a scale of 0-5; grade 5 was defined as 100% cytotoxicity. The 50% cytotoxic dose (IC50) was calculated by regression analysis. A selective index (S.I.) was calculated for each compound (SI.=(IC50)/(EC50)).
# [2] = cited from earlier work
# [3] = Cytotoxicity, visual examination, MA-104 cells; type: cell-based, African green monkey; settings: African green monkey
# Method: as §1, §2
# [4] = system: embryonic African green monkey kidney cells (MA-104); assay: Cytotoxicity, visual examination, MA-104 cells; type: cell-based
# Method: as §1, §2
# RSV strain A2 [5] = assay: CPE inhibition assay, visual examination, RSV; type: cell-based; settings: for EC50: human respiratory syncytial virus, unit inferred
# Method: as §1, §2
# human rhinovirus-14 [6] = assay: Neutral red assay of CPE inhibition, human rhinovirus-14; type: cell-based; settings: HeLa Ohio cells, unit inferred
# Method: as §1
# (§3) CPE inhibition assays with visual quantification of antiviral activity and cytotoxicity were performed as described by Sidwell and Huffman (1971) with slight modifications. Sidwell, R. W. and Huffman, J. H. (1971) Use of disposable micro-tissue culture plates for antiviral and interferon induction studies. Appl. Microbiol. 22, […]. […] All compounds were assayed for virus inhibition in quadruplicate and for cytotoxicity in duplicate. For rhinovirus studies, Pirodavir was applied at a concentration of 0.001-1 μg/ml as the positive control compound. For RSV studies, the positive control compound was Ribavirin applied at a concentration of 0.5-500 μg/ml. For each compound, two wells were set aside as uninfected, untreated cell controls per test and four wells per test received virus only and represented controls for virus replication. […] A selective index (S.I.) was calculated for each compound (SI.=(IC50)/(EC50)).
# (§4) Neutral red assay of CPE inhibition and cytotoxicity was performed by a modified method as described by Cavenaugh et al. (1990). […] Briefly, medium was removed from each well of a plate scored for CPE from the visual CPE inhibition assay, 0.2 ml of neutral red (0.034% in PSS) was added to each of the wells of that plate and the plate incubated for 2 h at 37° C. in the dark. […] Absorbances at 540 and 450 nm were read with a microplate reader (Bio-Tek EL 1309; Bio-Tek Instruments). […] Absorbance values were expressed as percentages of untreated controls and EC50 and IC50 values were calculated by regression analysis
# [7] = Cytotoxicity, neutral red assay, MA-104 cells; type: cell-based; settings: African green monkey, MA-104 cells (embryonic African green monkey kidney), unit inferred
# Method: as §1, §3, §4
# [8] = Cytotoxicity, neutral red assay, HeLa Ohio cells; type: cell-based; settings: human, unit inferred
# Method: as §1, §3, §4
# [9] = Cytotoxicity, visual examination, HeLa Ohio cells; type: cell-based; settings: human, unit inferred
# Method: as §1, §2
# RSV strain A2 [10] = assay: Neutral red assay of CPE inhibition, RSV; type: cell-based; settings: human respiratory syncytial virus, MA104, MA-104 cells, unit inferred
# Method: as §1, §3, §4
# [11] = mice; 50 mg/kg BID dose; cited from earlier work
# [12] = literature (Sorbera et al); cited from earlier work
# RSV [strain A/A2] [13] = assay: Pulmonary histopathology in RSV-infected cotton rats; type: in vivo, Cotton rats [Sigmodon hispidus]; settings: for lung histopathology scores (RSV-induced inflammation): Day 5 post infection, celgosivir 25, 50 or 100 mg/kg BID from one day before or after infection, synagis 2.5 mg/kg i.m. once per day, vs vehicle
# Method: (§5) Cotton rats [Sigmodon hispidus, 2 male & 3 female, 6-8 weeks old] provided with standard rodent chow and water ad lib, were infected intranasally with RSV [strain A/A2, 10^5 pfu] on Day 0. Animals received celgosivir [25, 50 or 100 mg/kg BID for total daily doses of 50, 100 or 200 mg/kg] daily beginning one day before or after infection and were sacrificed on Day 5-post-infection for histopathology, qPCR, and viral load assessment. Control groups included a [i] positive control Synagis [2.5 mg/kg, i.m, once per day from the first day post-infection], [ii] vehicle control in which vehicle was administered twice per day beginning one day prior to RSV infection, [iii] a vehicle control group that were mock-infected with PBS for which treatment was initiated beginning one day prior to infection, and [iv] an untreated group mock infected with PBS that received no treatment. Animals were weighed on Day −1 and Day 5, and plasma was obtained by retro-orbital bleed on the same days.
# (§6) The RSV strain for inoculation [A/A2 (RSV A/A2) (ATCC, Manassas, VA)] was propagated in HEp-2 cells after serial plaque-purification to reduce defective-interfering particles. A pool of virus designated containing approximately 3.0×10^8 pfu/mL in sucrose stabilizing media was used in the experiment. This stock of virus was stored at −80° C. and was previously characterized in vivo in the cotton rat model and validated for upper and lower respiratory tract replication.
# Pulmonary Histopathology: Lungs were removed and inflated with 10% neutral buffered formalin to their normal volume, then fixed [using the same solution]. After fixation, lungs were embedded in paraffin, sectioned, and stained with H&E. Four parameters of pulmonary inflammation were evaluated: peribronchiolitis (inflammatory cell infiltration around the bronchioles), perivasculitis (inflammatory cell infiltration around the small blood vessels), interstitial pneumonia (inflammatory cell infiltration and thickening of alveolar walls), and alveolitis (cells within the alveolar spaces). Slides were blindly scored on a 0-4 severity scale. The scores are subsequently converted to a 0-100% normalized scale.
# Statistics: Group means for each parameter were evaluated by one-way ANOVA, then individual group means were compared [t-test, with multiple comparison correction] to the RSV-infected, vehicle-treated control group. P<0.05 was considered statistically significant.
# [14] = Pharmacokinetic simulations using CELADEN study parameters; parameters: species or system human; settings: linear extrapolation
# Method: It is known that a steady state minimum castanospermine concentration of 400 nanograms/ml is associated with a 50 mg/kg BID dose in mice and that the antiviral effect of celgosivir in vivo seems to be correlated with the minimum steady state concentration of castanospermine (Watanabe et al). […] International Publication No. WO 2014/143907 discloses pharmacokinetic parameters for castanospermine for the CELADEN study. […] Extrapolating linearly, therefore, the minimum protective dose (achieving 400 nanograms/ml steady state minimum) is approximately 40 mg every 6 h, 75 mg every 8 h and 225 mg every 12 h. Further, WO 2014/143907 discloses that the CELADEN study regimen produce a steady state maximum castanospermine concentration of 5100 nanograms/ml. […] The FDA has published generic scaling factors to adjust mg/kg dosing in animals to mg/kg dosing in humans. Generically for mice, that scaling factor is 12. Therefore, 50 mg/kg BID is equivalent to a dose of 4.2 mg/kg BID in humans, which for a 60 kg human is equivalent to 250 mg. The same dose administered three or four times daily is equivalent to 167 mg and 125 mg and 2.8 and 2.1 mg/kg respectively. In a 60 kg human, the maximum single dose is 6.7 mg/kg, and the maximum daily dose is 10 mg/kg.
# RSV [strain A/A2] [15] = assay: Nose and lung viral titers in RSV-infected cotton rats; type: in vivo, Cotton rats [Sigmodon hispidus]; settings: Day 5 post infection, celgosivir 25, 50 or 100 mg/kg BID from one day before or after infection, synagis 2.5 mg/kg i.m. once per day, vs vehicle
# Method: as §5, §6
# Viral Titers: Nose and lung homogenates were centrifuged and diluted in EMEM. Confluent HEp-2 monolayers were infected in duplicate with diluted homogenates in 24-well plates. Following one hour incubation at 37° C. […] Plaques were counted and virus titer determined as geometric mean plaque-forming units per gram of tissue±standard error for all animals in a group at a given time.
# Statistics: Group means for each parameter were evaluated by one-way ANOVA, then individual group means were compared [t-test, with multiple comparison correction] to the RSV-infected, vehicle-treated control group. […]
# [16] = compounds tested at 0.3, 3, 30 and 300 microM
# [17] = MA104, visual examination, MA-104 cells, compounds tested at 0.3, 3, 30 and 300 microM
# [18] = in theory, CELADEN study, confirming literature
# [19] = positive control applied at 0.001-1 μg/ml
# [20] = positive control applied at 0.5-500 μg/ml
compound,measurement,setting,value
O[C@H]1[C@H](O)[C@@H](O)CN2CC[C@H](O)[C@H]12 [Castanospermine],efficacy against human rhinovirus-14,human rhinovirus-14 [1],Neither celgosivir nor castanospermine were determined to be efficacious
same,EC50,human rhinovirus-14 [1]; [16],> 300 µM
same,steady state maximum castanospermine concentration,[2]; CELADEN study regimen,5100 nanograms/ml
same,CC50 at 6 days,[3]; CC50,> 300 µM
same,safety in vitro (CC50 above the highest concentration tested),[4],safe at all concentrations tested
same,EC50,RSV strain A2 [5]; [17],> 300 µM
same,EC50,human rhinovirus-14 [6]; [16],> 300 µM
same,CC50 at 6 days,[7]; [16],> 300 µM
same,CC50 at 6 days,[8]; [16],> 300 µM
same,CC50 at 6 days,[9]; [16],> 300 µM
same,EC50,RSV strain A2 [10]; [16],> 300 µM
same,steady state minimum castanospermine concentration,[11],400 nanograms/ml
CCCC(=O)O[C@H]1CN2CC[C@H](O)[C@@H]2[C@@H](O)[C@@H]1O [Celgosivir HCL],"pharmacokinetics, dose linearity",[12],linear with dose over the tolerated dose range
same,efficacy against human rhinovirus-14,human rhinovirus-14 [1],Neither celgosivir nor castanospermine were determined to be efficacious
same,EC50,human rhinovirus-14 [1]; [16],> 300 µM
same,adverse event profile,[2]; CELADEN study regimen,"higher incidence of GI effects, but not increased severity"
same,maximum daily dose as a total dose,[2]; [18],≤ 600 mg
same,maximum dose as a single dose,[2]; [18],≤ 400 mg
same,CC50 at 6 days,"[3]; MA-104 cells (embryonic African green monkey kidney), RSV studies, text summary over visual and neutral red assays, unit inferred, read-out: CC50",≥ 300 µM
same,CC50 at 6 days,"[3]; MA-104 cells (embryonic African green monkey kidney), visual examination, MA-104 cells, compounds tested at 0.3, 3, 30 and 300 microM, unit inferred, read-out: CC50",> 300 µM
same,safety in vitro (CC50 above the highest concentration tested),"[4]; all concentrations tested (0.3-300 microM), text summary of the cytotoxicity assays",safe at all concentrations tested
same,EC50,RSV strain A2 [5]; [17],37 µM
same,EC50,"RSV strain A2 [5]; against RSV, text summary over visual and neutral red assays",34 to 37 µM
same,efficacy against RSV infection,RSV strain A2 [5]; in vitro,efficacious
same,EC50,human rhinovirus-14 [6]; [16],> 300 µM
same,lung histopathology scores (RSV-induced inflammation),RSV [strain A/A2] [13]; listed as Celgosivir,reduced inflammation at all doses on three of four histopathology parameters
same,lung histopathology scores (RSV-induced inflammation),RSV [strain A/A2] [13]; listed as celgosivir,reduced for at least one domain for all doses
same,impact of timing of administration on degree of protection against inflammation,RSV [strain A/A2] [13]; dosing begun one day prior to vs one day after infection (FIG. 1),minimal impact
same,CC50 at 6 days,[7]; [16],> 300 µM
same,minimum protective dose (achieving 400 nanograms/ml steady state minimum),[14]; every 6 h,approximately 40 mg
same,minimum protective dose (achieving 400 nanograms/ml steady state minimum),[14]; every 8 h,~75 mg
same,minimum protective dose (achieving 400 nanograms/ml steady state minimum),[14]; every 12 h,~225 mg
same,CC50 at 6 days,[8]; [16],> 300 µM
same,CC50 at 6 days,[9]; [16],> 300 µM
same,nasal and lung viral titer,RSV [strain A/A2] [15]; listed as Celgosivir,no effect on viral titer in either the nose or the lung
same,nasal and lung viral titer,RSV [strain A/A2] [15]; listed as celgosivir,did not
same,EC50,RSV strain A2 [10]; [16],34 µM
"CCOC(=O)c1ccc(OCCC2CCN(c3ccc(C)nn3)CC2)cc1 [Pirodavir, reference compound]",EC50,human rhinovirus-14 [1]; [19],0.032 µg/mL
same,EC50,human rhinovirus-14 [6]; [19],0.031 µg/mL
same,CC50 at 6 days,[8]; [19],> 1 µg/mL
same,CC50 at 6 days,[9]; [19],> 1 µg/mL
"NC(=O)c1ncn([C@@H]2O[C@H](CO)[C@@H](O)[C@H]2O)n1 [Ribavirin, reference compound]",CC50 at 6 days,"[3]; MA-104 cells (embryonic African green monkey kidney), visual examination, MA-104 cells, positive control applied at 0.5-500 μg/ml, unit inferred, read-out: CC50",340 µg/mL
same,EC50,"RSV strain A2 [5]; MA104, visual examination, MA-104 cells, positive control applied at 0.5-500 μg/ml",4 µg/mL
same,CC50 at 6 days,[7]; [20],62 µg/mL
same,EC50,RSV strain A2 [10]; [20],2.8 µg/mL
"Synagis: positive control in cotton rat RSV study, 2.5 mg/kg i.m. once per day",lung histopathology scores (RSV-induced inflammation),RSV [strain A/A2] [13],statistically significant reductions across all four histopathology domains
same,nasal and lung viral titer,RSV [strain A/A2] [15],decrease viral titer
